One series addresses T1, dCTP pyrophosphatase 1 (Homo sapiens, UniProt Q9H773).
T1 sequence (Q9H773 whole entry): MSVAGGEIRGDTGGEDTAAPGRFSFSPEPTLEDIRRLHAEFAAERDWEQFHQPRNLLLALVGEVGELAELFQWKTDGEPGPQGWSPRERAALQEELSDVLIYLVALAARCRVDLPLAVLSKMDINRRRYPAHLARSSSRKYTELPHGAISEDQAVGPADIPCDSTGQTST
Put plainly: Inhibition of recombinant human N-terminal His-tagged dCTPase 1 expressed in Escherichia coli BL21(DE3)pLysS using dCTP as substrate after 1 hr by malachite green reagent based assay.

The nature of series [1]: Stability of the compound in DMSO measured after several months by HPLC-MS analysis. The format is physicochemical.
Series [2] can be described thus: Half life in mouse liver microsomes up to 100 uM preincubated for 10 mins followed by NADPH addition by UPLC-MS analysis. The format is ADME, microsome.
The nature of series [3]: Half life in human liver microsomes up to 100 uM preincubated for 10 mins followed by NADPH addition by UPLC-MS analysis. The class given is ADME, microsome.
Series [4] is described as follows: Kinetic solubility of the compound. The format is physicochemical. As to conditions: read-out: Kinetic_solubility.
Series [5] is described as follows: Hepatic extraction ratio in human liver microsomes up to 100 uM preincubated for 10 mins followed by NADPH addition by UPLC-MS analysis. The class given is ADME, microsome. As to conditions: read-out: ERH.
Series [6] is described as follows: Hepatic extraction ratio in mouse liver microsomes up to 100 uM preincubated for 10 mins followed by NADPH addition by UPLC-MS analysis. The format is ADME, microsome. As to conditions: read-out: ERH. For orientation: Liver microsomes are a subcellular fraction often used to study metabolism.
In the next series the test system is HL-60. The series is described as follows: Cytotoxicity against human HL60 cells assessed as decrease in cell viability at 1 to 5 uM after 72 hrs by resazurin assay. The format is cell-based. As to conditions: hl-60, 72 h. Background: Alamar Blue is a resazurin reagent that responds to reducing activity.
Series [7] in a line: Stability of the compound in biochemical assay buffer under mildly acidic mobile phase conditions by HPLC-MS analysis. The format is physicochemical.
The nature of series [8]: Stability of the compound in biochemical assay buffer under basic mobile phase conditions by HPLC-MS analysis. The format is physicochemical.
A short description of series [9]: Metabolic stability in human plasma after 4 hrs. The class given is ADME, cell-free. As to conditions: read-out: Stability.
A short description of series [10]: Fraction unbound in human plasma. The format is ADME, cell-free.
Series [11] can be described thus: Intracellular bioavailability in human HL60 cells assessed as ratio of fraction unbound in cells to intracellular drug accumulation at 0.5 uM after 45 mins by LC-MS/MS analysis. The format is ADME. As to conditions: hl-60, 0.75 h.
Series [12] addresses T2, dCTP pyrophosphatase 1 (Homo sapiens) (UniProt Q9H773).
T2 sequence (whole entry): T1 sequence (Q9H773 whole entry)
Description: Binding affinity to recombinant human N-terminal His-tagged dCTPase 1 expressed in Escherichia coli BL21(DE3)pLysS assessed as change in melting temperature at 33 uM by Sypro Orange dye based DSF assay

For series [13], the target named is Oxidized purine nucleoside triphosphate hydrolase (Homo sapiens, UniProt P36639). The series is described as follows: Inhibition of recombinant human MTH1 using dGTP as substrate after 1 hr by malachite green reagent based assay.
Series [14] concerns the target Bis(5'-nucleosyl)-tetraphosphatase [asymmetrical] (Homo sapiens, UniProt P50583). The series is described as follows: Inhibition of NUDT2 (unknown origin) by malachite green reagent based assay.
Series [15] addresses ADP-sugar pyrophosphatase (Homo sapiens, UniProt Q9UKK9). The series is described as follows: Inhibition of human His-tagged NUDT5 expressed in bacterial expression system in presence of ADP after 1 hr by malachite green reagent based assay.
Series [16] addresses T3, Uridine diphosphate glucose pyrophosphatase NUDT14 (Homo sapiens, UniProt O95848).
T3 sequence (O95848 whole entry): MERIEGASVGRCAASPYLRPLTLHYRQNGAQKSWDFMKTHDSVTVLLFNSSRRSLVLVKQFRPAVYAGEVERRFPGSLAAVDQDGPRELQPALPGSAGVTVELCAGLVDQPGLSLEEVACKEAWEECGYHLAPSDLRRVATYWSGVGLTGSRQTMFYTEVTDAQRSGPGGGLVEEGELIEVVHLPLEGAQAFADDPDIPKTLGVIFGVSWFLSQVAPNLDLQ
Put plainly: Inhibition of human His-tagged NUDT14 expressed in bacterial expression system after 1 hr by malachite green reagent based assay.

In series [17] the target is T4, ADP-ribose pyrophosphatase, mitochondrial (Homo sapiens, UniProt Q9BW91).
T4 sequence (Q9BW91 whole entry): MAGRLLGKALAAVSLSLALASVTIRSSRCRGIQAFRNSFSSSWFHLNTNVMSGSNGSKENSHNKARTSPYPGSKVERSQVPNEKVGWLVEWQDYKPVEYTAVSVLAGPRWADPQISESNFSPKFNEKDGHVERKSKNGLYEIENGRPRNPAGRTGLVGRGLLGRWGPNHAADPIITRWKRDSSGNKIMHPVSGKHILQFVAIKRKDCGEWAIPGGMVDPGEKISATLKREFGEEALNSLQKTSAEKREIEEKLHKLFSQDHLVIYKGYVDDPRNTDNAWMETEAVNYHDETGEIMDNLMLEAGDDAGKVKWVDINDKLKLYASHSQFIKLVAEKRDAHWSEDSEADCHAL
The series is described as follows: Inhibition of NUDT9 (unknown origin) by malachite green reagent based assay.

For series [18], the target named is T5, Nucleotide triphosphate diphosphatase NUDT15 (Homo sapiens, UniProt Q9NV35).
T5 sequence (Q9NV35 whole entry): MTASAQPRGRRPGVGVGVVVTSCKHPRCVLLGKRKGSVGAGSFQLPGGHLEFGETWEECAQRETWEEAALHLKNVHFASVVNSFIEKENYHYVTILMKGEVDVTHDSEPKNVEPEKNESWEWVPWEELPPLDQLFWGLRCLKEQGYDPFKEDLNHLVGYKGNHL
Put plainly: Inhibition of human His-tagged NUDT15 expressed in bacterial expression system after 1 hr by malachite green reagent based assay.

The target in series [19] is Inosine triphosphate pyrophosphatase (Homo sapiens, UniProt Q9BY32). Put plainly: Inhibition of human His-tagged ITPase expressed in bacterial expression system after 1 hr by malachite green reagent based assay.
A short description of series [20]: Inhibition of human His-tagged dUTPase expressed in bacterial expression system after 1 hr by malachite green reagent based assay.

Values after ≈ are worked out from the molar mass of the structure shown. A value given as a limit tells only on which side of the number the result lay.

Chain of Bis(5'-nucleosyl)-tetraphosphatase [asymmetrical] (P50583 whole entry): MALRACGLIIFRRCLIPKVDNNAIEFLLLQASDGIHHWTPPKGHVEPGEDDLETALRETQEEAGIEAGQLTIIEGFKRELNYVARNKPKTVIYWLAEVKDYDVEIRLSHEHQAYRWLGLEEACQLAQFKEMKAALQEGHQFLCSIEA

What is called IC50 is the concentration needed to halve the response being measured. Broadly, the half-life is how long it takes for the measured level to halve. Lower therefore signals rapid decline. As for `COc1ccc(-c2nn3c(-c4ccco4)nnc3s2)cc1OC`, the IC50 on dCTP pyrophosphatase 1 stood at 0.019 µM. The Stability result in [1], in [7] and in [8] was “Stable” in each case. In addition, the figures for the half-life in series [2] and in series [3] were 1 min and 5 min, respectively. In addition, the solubility kinetic in [4] is 19 µM (≈ 6.24 µg/mL). The hepatic extraction ratio in series [5] came to 0.91; in series [6] it was 0.99. The Activity entry with HL-60 is on record as “Non-Toxic”.

The fraction unbound is free concentration divided by total concentration. The ΔTm is the shift of the melting midpoint relative to a reference. As for `COc1ccc(-c2nn3c(-c4ccccn4)nnc3s2)cc1OC`, on dCTP pyrophosphatase 1, the IC50 lay within 0.079 to 0.094 µM. Also, the Stability entry in series [1], in [7] and in series [8] was “Stable” each time. For the same molecule, the figures for the half-life in series [2] and in [3] were 3 min and 21 min, respectively. In [4], the solubility kinetic came to 27 µM (≈ 9.16 µg/mL). The hepatic extraction ratio was determined as 0.67 in series [5] and 0.95 in series [6]. The remaining at 4 h in series [9] worked out at 100%. For the same molecule, the fraction unbound in series [10] is 0.063. For the same molecule, the Ratio in series [11] is 0.15. Besides, the Activity entry with HL-60 is “Non-Toxic”. Moreover, the ΔTm in series [12] turned out to be 9.4 °C.

Consider `COc1ccc(-c2nn3c(-c4cccs4)nnc3s2)cc1OC`, for which the Stability result in series [1], in series [7] and in series [8] was “Stable” each time. The half-life in [2] is 1 min; in series [3], 4 min. Further, in series [4], the solubility kinetic was found to be 3 µM (≈ 1.03 µg/mL). For the same molecule, the IC50 in series [13], in series [14], in [15], in [16], in series [17] and in series [18] was over 100 µM throughout. In addition, the IC50 in [19] and in series [20] was over 100 µM each time. Also, the Activity result with HL-60 is “Non-Toxic”.

Values taken from ChEMBL document CHEMBL4007403, “Identification of Triazolothiadiazoles as Potent Inhibitors of the dCTP Pyrophosphatase 1” (J Med Chem, 2017).
